Reference: publication PMC13047053, “Crystal structure of human INPP5K with an allosteric inhibitor reveals the structural basis for species specific potency” (Scientific Reports, 2026)
“Also recorded” adds a separate entry of the source.

Key:
Test in all cases: Inorganic phosphate detection assay for phosphatase inhibition
Format in all cases: biochemical
hamster INPP5K = target: T1, hamster INPP5K (Cricetulus griseus, UniProt G3HTF6); settings: 20 µM diC8-PI(3,4,5)P3, 20 min
T1 construct: hamster INPP5K (aa 1–453, UniProt ID: G3HTF6); FLAG (N); made in house; host or cells: Expi293 cells (pcDNA3.4, transient)
T1 sequence (G3HTF6 1-451): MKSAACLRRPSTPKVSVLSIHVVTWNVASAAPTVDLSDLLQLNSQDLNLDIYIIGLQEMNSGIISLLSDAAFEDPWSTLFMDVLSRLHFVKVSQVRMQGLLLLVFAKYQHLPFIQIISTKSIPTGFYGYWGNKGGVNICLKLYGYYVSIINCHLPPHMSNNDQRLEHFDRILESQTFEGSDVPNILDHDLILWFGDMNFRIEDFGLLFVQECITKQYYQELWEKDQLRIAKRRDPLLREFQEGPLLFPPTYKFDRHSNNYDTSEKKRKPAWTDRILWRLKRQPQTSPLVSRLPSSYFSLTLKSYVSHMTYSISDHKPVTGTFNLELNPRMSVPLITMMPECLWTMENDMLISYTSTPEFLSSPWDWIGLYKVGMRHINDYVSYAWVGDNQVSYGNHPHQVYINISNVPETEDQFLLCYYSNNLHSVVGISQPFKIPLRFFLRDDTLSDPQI

human INPP5K = target: T2, human INPP5K (Homo sapiens, UniProt Q9BT40)
T2 construct: full-length human INPP5K (amino acids 1–448, UniProt ID: Q9BT40); FLAG (N); made in house; host or cells: Expi293 cells (pcDNA3.4, transient)
T2 sequence (Q9BT40 1-448): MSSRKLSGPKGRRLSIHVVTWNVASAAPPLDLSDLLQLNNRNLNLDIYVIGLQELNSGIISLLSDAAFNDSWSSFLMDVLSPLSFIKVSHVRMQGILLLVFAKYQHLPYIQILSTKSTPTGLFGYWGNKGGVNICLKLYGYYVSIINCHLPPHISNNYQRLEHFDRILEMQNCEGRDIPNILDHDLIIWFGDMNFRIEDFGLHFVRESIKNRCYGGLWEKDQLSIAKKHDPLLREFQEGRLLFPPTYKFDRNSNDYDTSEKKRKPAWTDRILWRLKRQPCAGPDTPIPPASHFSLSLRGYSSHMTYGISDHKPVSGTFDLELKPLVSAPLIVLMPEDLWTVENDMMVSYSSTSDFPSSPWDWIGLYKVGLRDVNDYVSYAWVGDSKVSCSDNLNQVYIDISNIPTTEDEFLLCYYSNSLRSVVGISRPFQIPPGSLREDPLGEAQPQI

rat INPP5K = target: T3, rat INPP5K (Rattus norvegicus, UniProt A0A0G2K2Z2)
T3 construct: rat INPP5K (aa 1–446, UniProt ID: Q9R0B6); FLAG (N); made in house; host or cells: Expi293 cells (pcDNA3.4, transient)
T3 sequence (A0A0G2K2Z2 1-446): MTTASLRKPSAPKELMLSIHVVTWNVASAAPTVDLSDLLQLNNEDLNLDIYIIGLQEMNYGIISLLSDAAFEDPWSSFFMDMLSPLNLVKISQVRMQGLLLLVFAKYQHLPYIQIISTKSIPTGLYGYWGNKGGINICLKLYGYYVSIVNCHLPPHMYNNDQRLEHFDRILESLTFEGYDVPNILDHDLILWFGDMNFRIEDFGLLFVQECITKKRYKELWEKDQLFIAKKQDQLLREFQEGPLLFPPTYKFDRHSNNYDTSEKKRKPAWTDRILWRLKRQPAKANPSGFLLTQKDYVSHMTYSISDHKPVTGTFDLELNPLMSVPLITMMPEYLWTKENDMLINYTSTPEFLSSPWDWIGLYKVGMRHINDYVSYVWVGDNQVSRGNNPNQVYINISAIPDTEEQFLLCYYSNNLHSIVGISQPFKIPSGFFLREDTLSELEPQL

[1] = inorganic phosphate detection assay, 20 µM diC8-PI(3,4,5)P3, 20 min

CC(C)c1sc(NC(=O)c2ccccc2)c(C(=O)O)c1-c1ccccc1 [CPD-1]
IC50 (hamster INPP5K): 8.2 µM
IC50 (human INPP5K; [1]): 2.9 µM
mode of inhibition of human INPP5K (human INPP5K; result in words): noncompetitive inhibition; also recorded: noncompetitive inhibitor
IC50 (rat INPP5K; [1]): > 100 µM
inhibition of rat INPP5K (in words) (rat INPP5K; result in words): no inhibition; also recorded: inactive
